# Measured values from patent publication US12173018B2, “Penicillin-binding protein inhibitors” (priority 2018, dated 2024).
# Read-outs that look alike come from different tables or passages of the source.
# What was measured:
# [1] = target: E. coli PBP3 (Escherichia coli (strain K12), UniProt P0AD68); assay: E. coli PBP3 Bocillin-FL fluorescence polarization competition binding assay
# How it was run: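 Steps: purified PBP (1.5 μM final) mixed with compound (0–1000 μM) in 50 mM Hepes pH 8.0, 300 mM NaCl, 5% glycerol; Bocillin-FL added to 0.1 μM; FP (ex 490, em 520 nm) followed for 60 min. Concentration reducing Bocillin-FL binding reported as EC50.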
# [2] = target: E. coli PBP4 (Escherichia coli (strain K12), UniProt P24228); assay: E. coli PBP4 Bocillin-FL fluorescence polarization competition binding assay
# Source text: To determine the ability of boronic acid-based test PBP inhibitors to bind Penicillin Binding Proteins (PBPs), Bocillin-FL (fluorescently-labeled penicillin V; ThermoFisher Scientific) was used in a fluorescence polarization (FP) competition binding assay to assess inhibitor binding to PBP2, PBP3 or PBP4 from Escherichia coli. PBPs were cloned and purified as described previously (King, D. T, et al., ACS Infectious Diseases 2015, 1, 175-184). To establish assay conditions for competition binding, an enzyme titration/saturation binding experiment was initially performed. Bocillin-FL was prepared at 0.2 μM in a buffer comprised of 50 mM Hepes (pH 8.0), 300 mM NaCl and 5% (v/v) glycerol. Saturation binding was performed by mixing 40 μl of PBP solutions ranging in concentrations from 0-12 μM with 40 μl of the 0.2 μM Bocillin-FL solution, in individual wells of a black 384-well microplate. FP was measured immediately upon mixing (Excitation, 490 nm; Emission, 520 nm; g-factor, 0.96), using a Cytation3 (BioTek) microplate reader and measured continuously for up to 120 minutes. […] Assays (80 μl final volume) were performed with PBPs at a final concentration of 1.5 μM, Bocillin-FL at 0.1 μM and beta-lactam concentrations that ranged from 0-1000 μM. […] Bocillin-FL was added and the FP immediately measured for 60 minutes (90 minutes for PBP2). The beta-lactam potency was reported as the concentration of beta-lactam required to reduce binding of Bocillin-FL by […] (EC50). […] Binding assays for boronic acid PBP inhibitors were performed in an identical fashion.
# [3] = target: E. coli PBP2 (Escherichia coli (strain K12), UniProt P0AD65); assay: E. coli PBP2 Bocillin-FL fluorescence polarization competition binding assay
# How it was run: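 Purified PBP2 at 1.5 μM final was preincubated with boronic acid inhibitor, then Bocillin-FL added to 0.1 μM final in Hepes pH 8.0/NaCl/glycerol buffer. Polarization was monitored 90 min; the concentration halving probe binding is reported as EC50.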
# [4] = tested on: E. coli ATCC 25922; assay: Broth microdilution MIC, E. coli ATCC 25922; assay type: cell-based; conditions: Escherichia coli
# How it was run: (§1)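 Visual MIC readout after 16-20 h at 37° C in CLSI-format microdilution. Compounds tested as 2-fold series against a 5×10^5 CFU/mL inoculum in cation-supplemented Mueller-Hinton broth.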
# [5] = tested on: E. coli AG100; assay: Broth microdilution MIC, E. coli AG100 (wild-type parent); assay type: cell-based; conditions: Escherichia coli; wild-type parent E. coli AG100, broth microdilution; read-out: MIC E. coli AG100
# How it was run: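 Starting inoculum of 5×10^5 CFU/mL, from colonies grown 3-5 h in Mueller-Hinton broth with divalent cations, added to two-fold compound dilution series.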
# [6] = tested on: E. coli 901C; assay: microbe, parasite or virus in culture; assay type: cell-based; conditions: Escherichia coli; hyper-permeable E. coli 901C, broth microdilution; read-out: MIC E. coli 901C
# How it was run: as §1
# [7] = tested on: E. coli AG100A; assay: microbe, parasite or virus in culture; assay type: cell-based; conditions: Escherichia coli, read-out: MIC E. coli AG100A
# How it was run: as §1
# [8] = tested on: K. pneumoniae UMM; assay: microbe, parasite or virus in culture; assay type: cell-based; conditions: Klebsiella pneumoniae; K. pneumoniae UMM producing SHV-5 and KPC-2; read-out: MIC K. pneumoniae UMM
# How it was run: as §1
# [9] = tested on: engineered strain of Escherichia coli harboring CTX-M15; assay: microbe, parasite or virus in culture; assay type: cell-based; conditions: Escherichia coli, read-out: Microbiological Activity (MIC in mg/L), E. coli DH5α/pLBII-CTX-M15, engineered strain producing CTX-M15
# [10] = tested on: E. coli D22; assay: microbe, parasite or virus in culture; assay type: cell-based; conditions: Escherichia coli; hyper-permeable E. coli D22, broth microdilution; read-out: MIC E. coli D22
# How it was run: as §1
# [11] = tested on: K. pneumoniae SI-117; assay: microbe, parasite or virus in culture; assay type: cell-based; conditions: Klebsiella pneumoniae, SI117, read-out: MIC K. pneumoniae SI-117
# How it was run: as §1
# [12] = tested on: P. aeruginosa (ΔmexAB-oprM); assay: microbe, parasite or virus in culture; assay type: cell-based; conditions: Pseudomonas aeruginosa, read-out: MIC P. aeruginosa ΔmexAB-OprM
# How it was run: as §1
# [13] = tested on: P. aeruginosa ATCC 35151; assay: microbe, parasite or virus in culture; assay type: cell-based; conditions: Pseudomonas aeruginosa, ATCC35151; hyper-permeable P. aeruginosa ATCC 35151; read-out: MIC P. aeruginosa ATCC 35151
# How it was run: as §1
# [14] = tested on: K. pneumoniae 848844; assay: microbe, parasite or virus in culture; assay type: cell-based, Klebsiella pneumoniae; conditions: Klebsiella pneumoniae; K. pneumoniae 848844 producing SHV-11 and KPC-2; read-out: MIC K. pneumoniae 848844
# How it was run: as §1
# [15] = tested on: P. aeruginosa ATCC 27853; assay: Broth microdilution MIC, P. aeruginosa ATCC 27853; assay type: cell-based; conditions: Pseudomonas aeruginosa, ATCC27853, read-out: MIC P. aeruginosa ATCC 27853
# Procedure: To determine the ability of test compounds to potentiate the inhibition of the growth of bacterial strains, classic cell based broth microdilution minimum inhibitory concentration (MIC) assays were employed. MIC assays are performed according to CLSI methods except where otherwise noted (CLSI, 2011 and CLSI, 2009). The reference type strain E. coli ATCC 25922, the wild-type parent strain E. coli AG100, the hyper-permeable E. coli 901C and E. coli D22 and the E. coli AG100A strain lacking the acrAB efflux pump encoding genes were used to determine the ability of the PBP inhibitors to penetrate the outer membrane of gram-negative bacteria and inhibit bacterial growth. […] The P. aeruginosa PAO1, P. aeruginosa ATCC 27853 and A. baumannii ATCC 19606, along with the hyper-permeable P. aeruginosa ATCC 35151 and an engineered efflux pump-compromised strain of P. aeruginosa (ΔmexAB-oprM) were used to determine the ability of PBP inhibitors to penetrate the outer membrane of P. aeruginosa and A. baumannii and assess antibacterial activity against these important gram-negative organisms.
# Briefly, cryo-preserved bacterial cultures of challenge strains are streaked for isolation on appropriate agar medium, in this case Mueller Hinton II agar. Following incubation to allow growth of the colonies, plates are sealed with parafilm and stored refrigerated for up to two weeks. For preparation of assay inoculum and to ensure low variability, at least 5 colonies are picked from the agar plates with an inoculating loop and aseptically transferred to a culture tube containing 3 mL of Mueller-Hinton Broth (supplemented with divalent cations to required levels based on Manufacturers' certification). The broth culture is grown for 3-5 hours at 37° C. with shaking at 200 rpm. Meanwhile, 2-fold serial dilutions of test compounds are conducted in a 96 well plate with a final volume of 75 μL per well at 2-fold the final desired concentration. After the dilution plates are set up the growing cultures are then diluted in a cuvette containing MH II broth and the optical density is measured at 600 nm. The Inoculum is diluted such that 75 μL of this culture in Mueller-Hinton Broth results in a starting bacterial concentration of 5×10^5 CFU/mL when added to the dilution plates. The plates are incubated for 16-20 hours at 37° C. The MIC values are read visually as the lowest concentration well with no bacterial growth.
# [16] = tested on: A. baumannii ATCC 19606; assay: Broth microdilution MIC, A. baumannii ATCC 19606; assay type: cell-based; conditions: Acinetobacter baumannii, ATCC19606, read-out: MIC A. baumannii ATCC 19606
# How it was run: as §1
# [17] = ATCC25922, read-out: MIC E. coli 25922
Compound,EC50 [1] [µM],EC50 [2] [µM],"EC50 ([1]; fluorescence polarization competition binding with Bocillin-FL, read-out: E. coli K12 PBP3 Potency) [µM]",EC50 [3] [µM],"MIC ([4]; ATCC25922, E. coli ATCC 25922, broth microdilution, read-out: MIC E. coli 25922) [mg/L]",MIC [5] [mg/L],MIC [6] [mg/L],MIC [7] [mg/L],MIC [8] [mg/L],MIC [9] [mg/L],"MIC [4, 17] [mg/L]",MIC [10] [mg/L],MIC [11] [mg/L],MIC [12] [mg/L],MIC [13] [mg/L],MIC [14] [mg/L],MIC [15] [mg/L],MIC [16] [mg/L],"EC50 ([2]; assay validation with beta-lactams, PBP 1.5 μM, Bocillin-FL 0.1 μM, read-out: EC50 with PBP4 (reduction of Bocillin-FL binding)) [µM]"
"CCN1CCN(C(=O)N[C@H](Cc2ccc(O)c(O)c2)C(=O)N[C@H]2Cc3cccc(C(=O)O)c3OB2O)C(=O)C1=O [Example 40, (R)-3-((R)-3-(3,4-dihydroxyphenyl)-2-(4-ethyl-2,3-dioxopiperazine-1-carboxamido)propanamido)-2-hydroxy-3,4-dihydro-2H-benzo[e][1,2]oxaborinine-8-carboxylic acid]",30 to 500,30 to 500,–,–,–,–,–,–,–,–,–,–,–,–,–,–,–,–,–
"CCN1CCN(C(=O)NC(C(=O)N[C@H]2Cc3cccc(C(=O)O)c3OB2O)c2ccc(O)cn2)C(=O)C1=O (stereo partly drawn) [Example 89, (3R)-3-(2-(4-ethyl-2,3-dioxopiperazine-1-carboxamido)-2-(5-hydroxypyridin-2-yl)acetamido)-2-hydroxy-3,4-dihydro-2H-benzo[e][1,2]oxaborinine-8-carboxylic acid]",–,30 to 500,< 30,30 to 500,8 to 16,32 to 64,0.5 to 1,2 to 4,8 to 16,8 to 16,–,–,–,–,–,–,–,–,–
"NCCCN1CCN(C(=O)N[C@@H](C(=O)N[C@H]2Cc3cccc(C(=O)O)c3OB2O)c2ncc(O)cc2F)C(=O)C1=O [Example 252, (R)-3-((R)-2-(4-(3-aminopropyl)-2,3-dioxopiperazine-1-carboxamido)-2-(3-fluoro-5-hydroxypyridin-2-yl)acetamido)-2-hydroxy-3,4-dihydro-2H-benzo[e][1,2]oxaborinine-8-carboxylic acid]",–,–,–,–,–,8 to 16,0.5 to 1,0.5 to 1,8 to 16,–,8 to 16,2 to 4,32 to 64,8 to 16,< 0.25,32 to 64,32 to 64,> 128,–
"NS(=O)(=O)NCCN1CCN(C(=O)NC(C(=O)N[C@H]2Cc3ccc(F)c(C(=O)O)c3OB2O)c2ccc(O)c(O)c2Cl)C(=O)C1=O (stereo partly drawn) [Example 244, (3R)-3-(2-(2-chloro-3,4-dihydroxyphenyl)-2-(2,3-dioxo-4-(2-(sulfamoylamino)ethyl)piperazine-1-carboxamido)acetamido)-7-fluoro-2-hydroxy-3,4-dihydro-2H-benzo[e][1,2]oxaborinine-8-carboxylic acid]",–,–,–,–,–,2 to 4,0.5 to 1,0.5 to 1,0.5 to 1,–,8 to 16,0.5 to 1,2 to 4,< 0.25,< 0.25,2 to 4,< 0.25,< 0.25,–
"C[C@H]1CN(CCN)C(=O)C(=O)N1C(=O)N[C@@H](C(=O)N[C@H]1Cc2ccc(F)c(C(=O)O)c2OB1O)c1ccc(O)c(O)c1Cl [Example 250, (R)-3-((R)-2-((S)-4-(2-aminoethyl)-6-methyl-2,3-dioxopiperazine-1-carboxamido)-2-(2-chloro-3,4-dihydroxyphenyl)acetamido)-7-fluoro-2-hydroxy-3,4-dihydro-2H-benzo[e][1,2]oxaborinine-8-carboxylic acid]",–,–,–,–,–,0.5 to 1,0.5 to 1,0.5 to 1,0.5 to 1,–,2 to 4,0.5 to 1,2 to 4,< 0.25,< 0.25,0.5 to 1,0.5 to 1,< 0.25,–
"CNCCN1CCN(C(=O)N[C@@H](C(=O)N[C@H]2Cc3ccc(F)c(C(=O)O)c3OB2O)c2ccc(O)c(O)c2Cl)C(=O)C1=O [Example 242, (R)-3-((R)-2-(2-chloro-3,4-dihydroxyphenyl)-2-(4-(2-(methylamino)ethyl)-2,3-dioxopiperazine-1-carboxamido)acetamido)-7-fluoro-2-hydroxy-3,4-dihydro-2H-benzo[e][1,2]oxaborinine-8-carboxylic acid]",–,–,–,–,–,0.5 to 1,0.5 to 1,0.5 to 1,0.5 to 1,–,8 to 16,0.5 to 1,2 to 4,< 0.25,< 0.25,0.5 to 1,0.5 to 1,0.5 to 1,–
"C[C@@H](O)[C@H]1C(=O)N2C(C(=O)O)=C(S[C@@H]3CN[C@H](C(=O)N(C)C)C3)[C@H](C)[C@H]12 [meropenem, reference compound]",–,–,–,–,–,–,–,–,–,–,–,–,–,–,–,–,–,–,< 2
